Data: ChEMBL document CHEMBL4219149, “Design and synthesis of triple inhibitors of janus kinase (JAK), histone deacetylase (HDAC) and Heat Shock Protein 90 (HSP90)” (Bioorg Med Chem Lett, 2018)
pIC50: −log10 of the molar value.

Columns and labels:
Heat shock protein HSP90 = Heat shock protein HSP90 (Homo sapiens, UniProt P07900+P08238); assay: Inhibition of geldanamycin-based probe binding to HSP90 (unknown origin) by fluorescence polarization assay; type: protein assay
[1] = molecular target: Tyrosine-protein kinase JAK2 (Homo sapiens, UniProt O60674); assay: Inhibition of human JAK2 using poly[Glu:Tyr] (4:1) as substrate in presence of [gamma33P]-ATP
Histone deacetylase 1 = Histone deacetylase 1 (Homo sapiens, UniProt Q13547); assay: Inhibition of HDAC1 (unknown origin) using Arg-His-Lys-Lys(Ac) as substrate after 2 hrs by fluorescence analysis
[2] = molecular target: T1, Protein deacetylase HDAC6 (Homo sapiens, UniProt Q9UBN7); assay: Inhibition of HDAC6 (unknown origin) using Arg-His-Lys-Lys(Ac) as substrate after 2 hrs by fluorescence analysis
T1 sequence (Q9UBN7 whole entry): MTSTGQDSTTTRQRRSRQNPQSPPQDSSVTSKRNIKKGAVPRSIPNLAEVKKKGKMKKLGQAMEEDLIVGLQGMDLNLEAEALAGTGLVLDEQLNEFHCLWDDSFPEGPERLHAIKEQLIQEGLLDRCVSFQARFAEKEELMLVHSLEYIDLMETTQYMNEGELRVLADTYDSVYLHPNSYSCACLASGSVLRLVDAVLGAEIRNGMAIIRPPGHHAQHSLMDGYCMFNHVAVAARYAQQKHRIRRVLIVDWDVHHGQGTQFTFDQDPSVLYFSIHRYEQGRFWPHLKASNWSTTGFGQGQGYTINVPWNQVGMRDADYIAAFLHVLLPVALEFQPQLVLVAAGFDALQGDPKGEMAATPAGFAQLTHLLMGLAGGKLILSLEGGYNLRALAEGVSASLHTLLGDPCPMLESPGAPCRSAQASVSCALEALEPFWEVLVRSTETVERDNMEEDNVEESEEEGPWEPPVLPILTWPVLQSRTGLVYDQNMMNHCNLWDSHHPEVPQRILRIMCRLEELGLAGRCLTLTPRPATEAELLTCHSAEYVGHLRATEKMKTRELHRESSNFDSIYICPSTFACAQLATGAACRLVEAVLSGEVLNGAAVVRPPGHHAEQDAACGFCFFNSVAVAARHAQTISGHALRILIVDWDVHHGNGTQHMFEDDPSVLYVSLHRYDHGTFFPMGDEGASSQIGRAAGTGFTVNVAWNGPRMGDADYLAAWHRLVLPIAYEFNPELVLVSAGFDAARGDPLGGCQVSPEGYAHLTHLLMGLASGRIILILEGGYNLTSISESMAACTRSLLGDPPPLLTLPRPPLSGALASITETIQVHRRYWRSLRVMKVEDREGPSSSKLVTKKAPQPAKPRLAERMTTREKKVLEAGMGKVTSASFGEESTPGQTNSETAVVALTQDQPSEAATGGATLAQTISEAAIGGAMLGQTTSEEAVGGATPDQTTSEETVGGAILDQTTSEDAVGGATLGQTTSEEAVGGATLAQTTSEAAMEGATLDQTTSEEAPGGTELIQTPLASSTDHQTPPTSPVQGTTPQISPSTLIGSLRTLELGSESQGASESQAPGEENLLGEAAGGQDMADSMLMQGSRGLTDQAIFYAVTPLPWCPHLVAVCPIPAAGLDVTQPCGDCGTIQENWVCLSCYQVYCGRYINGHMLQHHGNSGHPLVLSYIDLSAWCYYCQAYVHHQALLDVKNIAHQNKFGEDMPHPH

[3] = molecular target: Heat shock protein HSP 90-alpha (Homo sapiens, UniProt P07900); assay: Inhibition of HSP90alpha (unknown origin)

Chain of Tyrosine-protein kinase JAK2 (O60674 whole entry): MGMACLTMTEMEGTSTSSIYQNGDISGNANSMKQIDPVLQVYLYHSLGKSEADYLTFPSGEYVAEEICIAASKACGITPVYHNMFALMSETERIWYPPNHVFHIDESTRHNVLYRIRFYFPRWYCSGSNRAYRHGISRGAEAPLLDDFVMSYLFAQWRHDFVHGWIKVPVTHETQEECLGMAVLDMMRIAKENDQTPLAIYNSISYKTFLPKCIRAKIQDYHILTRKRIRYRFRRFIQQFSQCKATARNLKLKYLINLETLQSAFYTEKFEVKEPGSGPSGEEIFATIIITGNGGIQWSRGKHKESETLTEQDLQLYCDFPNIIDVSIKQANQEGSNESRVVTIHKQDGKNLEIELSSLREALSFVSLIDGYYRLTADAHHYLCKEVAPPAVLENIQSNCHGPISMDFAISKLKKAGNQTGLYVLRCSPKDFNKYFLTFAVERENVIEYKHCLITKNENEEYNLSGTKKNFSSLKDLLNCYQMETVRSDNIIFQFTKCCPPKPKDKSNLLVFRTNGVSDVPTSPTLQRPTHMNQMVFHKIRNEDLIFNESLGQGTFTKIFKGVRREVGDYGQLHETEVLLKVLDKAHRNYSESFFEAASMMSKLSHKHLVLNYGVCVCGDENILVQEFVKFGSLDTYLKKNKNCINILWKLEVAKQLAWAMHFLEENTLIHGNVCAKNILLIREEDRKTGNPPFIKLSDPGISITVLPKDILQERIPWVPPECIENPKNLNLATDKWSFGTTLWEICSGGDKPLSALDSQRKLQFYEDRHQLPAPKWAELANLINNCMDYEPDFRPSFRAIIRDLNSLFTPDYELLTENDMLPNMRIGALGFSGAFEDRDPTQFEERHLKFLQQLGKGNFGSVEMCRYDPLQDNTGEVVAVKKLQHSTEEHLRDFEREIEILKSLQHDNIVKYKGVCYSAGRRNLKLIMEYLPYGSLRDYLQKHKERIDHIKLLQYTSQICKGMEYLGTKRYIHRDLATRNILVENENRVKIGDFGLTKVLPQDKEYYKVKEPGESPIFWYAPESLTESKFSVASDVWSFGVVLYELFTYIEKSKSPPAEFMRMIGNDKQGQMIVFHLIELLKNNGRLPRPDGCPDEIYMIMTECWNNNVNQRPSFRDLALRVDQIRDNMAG
Chain of Histone deacetylase 1 (Q13547 whole entry): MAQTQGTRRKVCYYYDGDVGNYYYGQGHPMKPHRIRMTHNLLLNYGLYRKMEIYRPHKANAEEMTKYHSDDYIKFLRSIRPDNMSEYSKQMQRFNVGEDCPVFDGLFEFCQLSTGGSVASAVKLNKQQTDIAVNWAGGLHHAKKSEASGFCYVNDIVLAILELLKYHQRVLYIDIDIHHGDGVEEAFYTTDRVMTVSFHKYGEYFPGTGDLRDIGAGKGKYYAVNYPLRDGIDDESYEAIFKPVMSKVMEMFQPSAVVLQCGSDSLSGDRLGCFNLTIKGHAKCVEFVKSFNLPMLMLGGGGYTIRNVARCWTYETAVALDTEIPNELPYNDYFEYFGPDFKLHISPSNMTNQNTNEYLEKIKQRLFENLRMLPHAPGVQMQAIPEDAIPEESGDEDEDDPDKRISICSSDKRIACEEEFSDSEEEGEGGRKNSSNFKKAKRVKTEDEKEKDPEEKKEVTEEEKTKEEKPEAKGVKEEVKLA

| IC50 (Heat shock protein HSP90) [µM] | pIC50 [1] | pIC50 (Histone deacetylase 1) | pIC50 [2] | pIC50 [3] | Compound |
| --- | --- | --- | --- | --- | --- |
| > 10 | – | – | – | – | CCNC(=O)c1cc2c(-c3cccc(OCCCCCn4cc(-c5ncnc6[nH]ccc56)cn4)c3)nc(N)nc2s1 |
| > 10 | – | – | – | – | CCNC(=O)c1cc2c(-c3cccc(OCCCCCCn4cc(-c5ncnc6[nH]ccc56)cn4)c3)nc(N)nc2s1 |
| 0.11 | 5.77 | – | – | – | CCNC(=O)c1cc2c(-c3cc(OCCCCCCn4cc(-c5ncnc6[nH]ccc56)cn4)c(Cl)cc3Cl)nc(N)nc2s1 |
| > 10 | < 5.00 | – | – | – | CCNC(=O)c1cc2c(-c3cccc(OCCCCn4cc(-c5ncnc6[nH]ccc56)cn4)c3)nc(N)nc2s1 |

The next lines start with the compound.

| Compound | IC50 (Heat shock protein HSP90) [µM] | pIC50 [1] | pIC50 (Histone deacetylase 1) | pIC50 [2] | pIC50 [3] |
| --- | --- | --- | --- | --- | --- |
| CCNC(=O)c1cc2c(-c3cc(OCCCCCCn4cc(-c5nc(Nc6ccc(NC(=O)CCCCCCC(=O)NO)cc6)nc6[nH]ccc56)cn4)c(Cl)cc3Cl)nc(N)nc2s1 | – | 4.85 | < 4.00 | 5.55 | < 4.00 |
| CCNC(=O)c1cc2c(-c3cccc(OCCCCCCOc4ccc(Nc5nc(-c6cnn(CCCCCCC(=O)NO)c6)c6cc[nH]c6n5)cc4)c3)nc(N)nc2s1 | – | < 4.00 | 5.61 | 8.10 | < 4.00 |
| CCNC(=O)c1cc2c(-c3cc(OCCCCCCn4cc(-c5nc(Nc6ccc(NC(=O)CCCCCCC(=O)O)cc6)nc6[nH]ccc56)cn4)c(Cl)cc3Cl)nc(N)nc2s1 | – | – | < 4.00 | 5.20 | 4.69 |
| CCNC(=O)c1cc2c(-c3cc(OCCCCCn4cc(-c5ncnc6[nH]ccc56)cn4)c(Cl)cc3Cl)nc(N)nc2s1 | 0.4 | 5.46 | – | – | – |
